Data from article PMC4478171, “Synthesis, characterization, and preclinical validation of a PET radiopharmaceutical for interrogating Aβ (β-amyloid) plaques in Alzheimer’s disease” (EJNMMI Research, 2015).

Tests used:
[1] = Lipophilicity (log P); format: physicochemical; details: octanol/water
[2] = target: AD homogenates (Homo sapiens, UniProt P05067); assay: Saturation radioligand binding to AD brain homogenates (insoluble fraction)
Description: Well-established literature procedures were used for preparation of AD homogenates. Grey matter was isolated from frozen postmortem frontal cortex tissue by dissection with a scalpel. To prepare insoluble fractions, dissected tissue was sequentially homogenized in four buffers (3 mL/g wet weight of tissue) with glass dounce tissue grinders (Kimble, Vineland, NJ, USA): 1) high salt (HS) buffer: 50 mM Tris-HCl pH 7.5, 750 mM NaCl, 5 mM EDTA; 2) HSbuffer with 1%Triton X-100; 3) HSbuffer with 1%Triton X-100 and 1 M sucrose; and 4) phosphate-buffered saline (PBS). Homogenates were centrifuged at 100,000×g; after each homogenization step, the pellet was resuspended, and homogenized in the next buffer in the sequence. For comparison in initial binding studies, unfractionated tissue homogenates were also prepared by homogenization of tissue in only PBS. Binding assays were performed using previously described methods. Briefly, a fixed concentration (1 μM/well) of Aβ1-42 fibrils was incubated for 1 h at 37°C with increasing concentrations of ^18F-7B (1.5 to 100 nM) in 30 mM Tris-HCl pH 7.4, 0.1% BSA in a reaction volume of 150 μL. A fixed ratio of hot:cold (^18F-7B and 7A) was used for all radioligand concentrations. The exact hot:cold (^18F-7B:7A) ratio was measured in each experiment by counting an aliquot of a sample (2 μL) of the radioligand preparation in a scintillation counter. Binding of ^18F-7B to human brain homogenates was assessed by incubating samples of insoluble fraction (5-μg insoluble protein/well) from AD subjects, with increasing concentrations of ^18F-7B (1.5 to 100 nM). Nonspecific binding was determined in parallel experiments utilizing 7A (2.5 μM) for Aβ1-42 fibrils and 7A (5 μM) for AD tissue as a competitor. Bound and free radioligand were separated by vacuum filtration through glass fiber 96-well filter plates (Millipore Multiscreen FB filter plate), followed by washes using ice-cold assay buffer (3 × 150 μL). Glass fiber filters containing the bound ligand were mixed with Optiphase Supermix scintillation cocktail (150 μL; PerkinElmer, Waltham, MA, USA) and counted immediately. All data were obtained in triplicate and analyzed by curve fitting to a one-site binding model using nonlinear regression employing Graphpad Prism software (version 4.0) to determine Kd and Bmax values. Bmax values were calculated in pmol/gram wet weight of brain tissue.

[3] = Biodistribution studies in normal mice; format: in vivo, FVB mice; details: for Blood uptake / Bone uptake / Brain uptake / Kidney uptake / Liver uptake: FVB mice, n = 3
Description: All animal procedures were approved by the Washington University Animal Studies Committee. Pharmacokinetics of ^18F-7B in brain and other critical tissues of normal male 12-week-old FVB (wild type (WT); 28 to 36 g) mice were determined as previously described. Briefly, ^18F-7B (740 kBq) was dissolved in 100-μL saline containing 10% ethanol. All animals were anesthetized by isofluorane inhalation and injected with radiotracer ^18F-7B (740 kBq, 100 μL) via bolus injection through a tail vein. Animals were sacrificed by cervical dislocation under anesthesia at 5, 30, 60, and 120 min after injection (n = 3 each). Blood samples were obtained by cardiac puncture, organs then harvested rapidly, and all tissue samples analyzed for γ-activity. Data are expressed as the percentage injected dose (%ID) per gram of tissue (tissue kBq (injected kBq)^−1 (g tissue)^−1 × 100).

[4] = target: Aβ plaques (Homo sapiens, UniProt P05067); assay: MicroPET/CT imaging in APP/PS1 versus WT mice; format: in vivo
Aβ plaques, sequence (P05067 672-711 limits assumed): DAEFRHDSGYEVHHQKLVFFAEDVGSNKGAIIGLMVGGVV
Description: Following anesthesia, the mice were secured with their heads in the center of the field of view, fixed in the scanner in a prone head-first position (HFP), and placed in an acrylic-imaging tray. MicroPET imaging was performed using Inveon PET/CT scanner (Siemens Medical Solutions, Malvern, PA, USA) following intravenous tail-vein injection of HPLC-purified [^18F]7B (12.95 MBq; 28 μL; 35% ethanol in saline) employing the catheter system in a slow bolus, followed by flushing with isotonic saline solution. PET dynamic data acquisition was performed over 75 min starting immediately following injection of the tracer. The emission data were normalized and corrected for attenuation, scatter, and decay. Attenuation correction was obtained using the co-registered CT data. The image volume consisted of 256 × 256 × 159 voxels, with a size of 0.39 × 0.39 × 0.8 mm^3 per voxel for the Inveon scanner. For anatomical visualization, PET images were co-registered with CT images from an Inveon PET/CT scanner. For analysis, brain uptake (Bq/L) was normalized to injected dose and weight of animals. […] Additionally, SUV values in time-activity curves were normalized to the average activity measured in those regions between 1 to 2 min post-injection. All image data were processed and analyzed using Inveon Research Workspace 4.1 software (Siemens, Malvern, PA, USA). […]

AD homogenates, sequence (P05067 672-711 limits assumed): as above

CN(C)c1ccc(/C=C/c2nc3ccc(OCC[18F])cc3s2)cn1 [^18F-7B, (E)-5-(2-(6-(2-[^18F]-fluoroethoxy)-benzo[d]thiazol-2-yl)vinyl)-N,N-dimethylpyridin-2-amine]
logP [1]: 1.3 | fold higher affinity for AD homogenates compared with fibrils ([2]; AD homogenates vs Aβ1-42 fibrils): 3.4 fold | Bmax ([2]; AD homogenates, one-site model): 1,432 pmol/g wet weight | fold lower binding affinity to AD homogenates than Florbetapir ([2]; comparator value from ref 11): 5 fold | fold lower binding affinity to AD homogenates than Flutemetamol ([2]; comparator value from ref 16): 2.6 fold | fold lower BP than 11C-PIB ([2]; homogenates, comparator from ref 28): 6 fold | fold lower BP than 18F-Florbetaben ([2]; homogenates, comparator from ref 36): 2 fold | Kd ([2]; saturable specific binding, one-site model, nonspecific binding with 7A (5 μM)): 17.7 nM | Blood uptake ([3]; 5 min post i.v.): 3.18 ± 0.23 %ID/g | Bone uptake ([3]; 5 min post i.v.): 1.61 ± 0.20 %ID/g | Brain uptake ([3]; 5 min post i.v.): 7.23 ± 0.47 %ID/g | Kidney uptake ([3]; 5 min post i.v.): 6.72 ± 0.44 %ID/g | Liver uptake ([3]; 5 min post i.v.): 16.22 ± 1.43 %ID/g | Blood uptake ([3]; 30 min post i.v.): 2.51 ± 0.09 %ID/g | Bone uptake ([3]; 30 min post i.v.): 2.08 ± 0.13 %ID/g | Brain uptake ([3]; 30 min post i.v.): 2.27 ± 0.13 %ID/g | Kidney uptake ([3]; 30 min post i.v.): 2.83 ± 0.09 %ID/g | Liver uptake ([3]; 30 min post i.v.): 5.21 ± 0.08 %ID/g | Blood uptake ([3]; 60 min post i.v.): 2.40 ± 0.17 %ID/g | Bone uptake ([3]; 60 min post i.v.): 3.41 ± 0.37 %ID/g | Brain uptake ([3]; 60 min post i.v.): 2.00 ± 0.15 %ID/g | Kidney uptake ([3]; 60 min post i.v.): 2.20 ± 0.07 %ID/g | Liver uptake ([3]; 60 min post i.v.): 3.44 ± 0.20 %ID/g | Blood uptake ([3]; 120 min post i.v.): 1.86 ± 0.05 %ID/g | Bone uptake ([3]; 120 min post i.v.): 5.27 ± 0.34 %ID/g | Brain uptake ([3]; 120 min post i.v.): 1.55 ± 0.01 %ID/g | Kidney uptake ([3]; 120 min post i.v.): 1.59 ± 0.03 %ID/g | Liver uptake ([3]; 120 min post i.v.): 2.73 ± 0.16 %ID/g | brain uptake clearance ratio 5 min/120 min ([3]; %ID/g brain, normal mice): 4.66 | defluorination indicated by bone accumulation ([3]; as a function of time over 2 h, normal mice): slight defluorination | retention in brain/frontal cortex of transgenic mice compared with WT ([4]; APP/PS1 vs age-matched WT mice, 22.6 months, dynamic PET 1 to 75 min, i.v.): significantly higher retention | retention in extracerebral regions ([4]; nasal and eye cavities, microPET/CT): considerable retention in extracerebral regions
